# In US12077503B2, “Substituted cyclic amides and their use as herbicides” (FMC CORPORATION, priority 2015, dated 2024):
# Tests used:
# Type in all cases: in vivo
# soybean (Glycine max) = experiment: Test C preemergence; details: for Plant response rating (scale of 0 to 100), Soybean: 0 is no effect, 100 is complete control
# In short: (§1)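 Preemergence application to seeds in loam/sand soil, or foliar (postemergence) application to plants 2–18 cm tall in peat moss/vermiculite medium; surfactant-containing non-phytotoxic solvent vehicle; greenhouse. Visual injury vs controls at 13–15 d; 0 = no effect, 100 = complete control.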
# [1] = system: velvetleaf (Abutilon theophrasti); experiment: Test C preemergence; details: for Plant response rating (scale of 0 to 100), Velvetleaf: 0 is no effect, 100 is complete control
# In short: as §1
# [2] = system: johnsongrass (Sorghum halepense); experiment: Test C preemergence; details: for Plant response rating (scale of 0 to 100), Johnsongrass: 0 is no effect, 100 is complete control
# In short: as §1
# [3] = system: foxtail, giant (giant foxtail, Setaria faberii); experiment: Test C preemergence; details: for Plant response rating (scale of 0 to 100), Foxtail, Giant: 0 is no effect, 100 is complete control
# In short: as §1
# corn (Zea mays) = experiment: Test C preemergence; details: for Plant response rating (scale of 0 to 100), Corn: 0 is no effect, 100 is complete control
# In short: as §1
# [4] = system: barnyardgrass (Echinochloa crus-galli); experiment: Test C preemergence; details: for Plant response rating (scale of 0 to 100), Barnyardgrass: 0 is no effect, 100 is complete control
# In short: as §1
# [5] = system: Galium (catchweed bedstraw, Galium aparine); experiment: Test C preemergence; details: for Plant response rating (scale of 0 to 100), Galium: 0 is no effect, 100 is complete control
# In short: as §1
# [6] = system: pigweed (Amaranthus retroflexus); experiment: Test C preemergence; details: for Plant response rating (scale of 0 to 100), Pigweed: 0 is no effect, 100 is complete control
# In short: as §1
# [7] = system: morningglory (Ipomoea coccinea); experiment: Test C preemergence; details: for Plant response rating (scale of 0 to 100), Morningglory: 0 is no effect, 100 is complete control
# In short: as §1
# [8] = system: ryegrass, Italian (Italian ryegrass, Lolium multiflorum); experiment: Test C preemergence; details: for Plant response rating (scale of 0 to 100), Ryegrass, Italian: 0 is no effect, 100 is complete control
# In short: as §1
# [9] = system: ragweed (common ragweed, Ambrosia elatior); experiment: Test A preemergence; details: Ambrosia artemisiifolia, pre-emergence, 240 h, read-out: Plant response rating, Ragweed
# In short: (§2)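 Seeded soil received test chemicals as a preemergence directed spray, and seedlings at one to two leaves, 2–10 cm tall, received them postemergence, in a non-phytotoxic, surfactant-containing solvent mixture. Pots were held in a greenhouse for approximately 10 d, then rated for injury from 0, no effect, to 100, complete control.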
# [10] = system: barnyardgrass (Echinochloa crus-galli); experiment: Test A preemergence; details: Echinochloa crus-galli, pre-emergence, 240 h, read-out: Plant response rating, Barnyardgrass
# In short: as §2
# [11] = system: pigweed (Amaranthus retroflexus); experiment: Test A preemergence; details: Amaranthus retroflexus, pre-emergence, 240 h, read-out: Plant response rating, Pigweed
# Kochia (Kochia scoparia) = experiment: Test A preemergence; details: Bassia scoparia, pre-emergence, 240 h, read-out: Plant response rating, Kochia
# In short: as §2
# [12] = system: ryegrass, Italian (Italian ryegrass, Lolium multiflorum); experiment: Test A preemergence; details: Lolium multiflorum, pre-emergence, 240 h, read-out: Plant response rating, Ryegrass, Italian
# In short: as §2
# [13] = 62 g ai/ha, scale 0 to 100, 0 no effect, 100 complete control
# [14] = 125 g ai/ha, Preemergence, visual injury after approximately 10 d, 0 to 100 scale where 0 is no effect and 100 is complete control
# [15] = 500 g ai/ha, preemergence, 0 to 100 scale, 0 = no effect, 100 = complete control
compound,measurement,setting,value
"CN1C[C@H](c2ccc(C(F)(F)F)cc2)[C@@H](C(=O)Nc2cccc(F)c2F)C1=O [Compound 623, (3S,4S)—N-(2,3-difluorophenyl)-1-methyl-2-oxo-4-[4-(trifluoromethyl)phenyl]-3-pyrrolidinecarboxamide]","Plant response rating (scale of 0 to 100), Soybean",soybean (Glycine max); 8 g ai/ha,0
same,"Plant response rating (scale of 0 to 100), Soybean",soybean (Glycine max); 16 g ai/ha,0
same,"Plant response rating (scale of 0 to 100), Soybean",soybean (Glycine max); 31 g ai/ha,0
same,"Plant response rating, Soybean",soybean (Glycine max); [13],0
same,"Plant response rating (scale of 0 to 100), Velvetleaf",[1]; 8 g ai/ha,0
same,"Plant response rating (scale of 0 to 100), Velvetleaf",[1]; 16 g ai/ha,0
same,"Plant response rating (scale of 0 to 100), Velvetleaf",[1]; 31 g ai/ha,5
same,"Plant response rating, Velvetleaf",[1]; [13],60
same,"Plant response rating (scale of 0 to 100), Johnsongrass",[2]; 8 g ai/ha,50
same,"Plant response rating (scale of 0 to 100), Johnsongrass",[2]; 16 g ai/ha,15
same,"Plant response rating (scale of 0 to 100), Johnsongrass",[2]; 31 g ai/ha,50
same,"Plant response rating, Johnsongrass",[2]; [13],70
same,"Plant response rating (scale of 0 to 100), Foxtail, Giant",[3]; 8 g ai/ha,85
same,"Plant response rating (scale of 0 to 100), Foxtail, Giant",[3]; 16 g ai/ha,90
same,"Plant response rating (scale of 0 to 100), Foxtail, Giant",[3]; 31 g ai/ha,90
same,"Plant response rating, Foxtail, Giant",[3]; [13],90
same,"Plant response rating (scale of 0 to 100), Corn",corn (Zea mays); 8 g ai/ha,10
same,"Plant response rating (scale of 0 to 100), Corn",corn (Zea mays); 16 g ai/ha,30
same,"Plant response rating (scale of 0 to 100), Corn",corn (Zea mays); 31 g ai/ha,60
same,"Plant response rating, Corn",corn (Zea mays); [13],65
same,"Plant response rating (scale of 0 to 100), Barnyardgrass",[4]; 8 g ai/ha,90
same,"Plant response rating (scale of 0 to 100), Barnyardgrass",[4]; 16 g ai/ha,90
same,"Plant response rating (scale of 0 to 100), Barnyardgrass",[4]; 31 g ai/ha,90
same,"Plant response rating, Barnyardgrass",[4]; [13],95
same,"Plant response rating (scale of 0 to 100), Galium",[5]; 8 g ai/ha,90
same,"Plant response rating (scale of 0 to 100), Galium",[5]; 16 g ai/ha,85
same,"Plant response rating (scale of 0 to 100), Galium",[5]; 31 g ai/ha,85
same,"Plant response rating, Galium",[5]; [13],90
same,"Plant response rating (scale of 0 to 100), Pigweed",[6]; 8 g ai/ha,75
same,"Plant response rating (scale of 0 to 100), Pigweed",[6]; 16 g ai/ha,85
same,"Plant response rating (scale of 0 to 100), Pigweed",[6]; 31 g ai/ha,85
same,"Plant response rating, Pigweed",[6]; [13],85
same,"Plant response rating (scale of 0 to 100), Morningglory",[7]; 8 g ai/ha,0
same,"Plant response rating (scale of 0 to 100), Morningglory",[7]; 16 g ai/ha,0
same,"Plant response rating (scale of 0 to 100), Morningglory",[7]; 31 g ai/ha,25
same,"Plant response rating, Morningglory",[7]; [13],15
same,"Plant response rating (scale of 0 to 100), Ryegrass, Italian",[8]; 8 g ai/ha,0
same,"Plant response rating (scale of 0 to 100), Ryegrass, Italian",[8]; 16 g ai/ha,20
same,"Plant response rating (scale of 0 to 100), Ryegrass, Italian",[8]; 31 g ai/ha,45
same,"Plant response rating, Ryegrass, Italian",[8]; [13],55
same,pest or weed control at 125 g/ha,[9]; [14],80%
same,pest or weed control at 500 g/ha,[9]; [15],80%
same,pest or weed control at 125 g/ha,[10]; [14],90%
same,pest or weed control at 500 g/ha,[10]; [15],90%
same,pest or weed control at 125 g/ha,[11]; [14],80%
same,pest or weed control at 500 g/ha,[11]; [15],80%
same,pest or weed control at 125 g/ha,Kochia (Kochia scoparia); [14],60%
same,pest or weed control at 500 g/ha,Kochia (Kochia scoparia); [15],70%
same,pest or weed control at 125 g/ha,[12]; [14],80%
same,pest or weed control at 500 g/ha,[12]; [15],90%
